The source made the active and inactive calls. For most assays here, no stated cut-off is given here; in the data, actives have a measured Kd and inactives only a lower limit. Some results are limits rather than exact numbers.

In test [1] the target is Tyrosine-protein kinase ABL1 (Homo sapiens, UniProt P00519).
The target of test [2] is T1, Acyl-CoA dehydrogenase family member 11 (Homo sapiens, UniProt Q709F0).
T1 sequence (Q709F0 whole entry): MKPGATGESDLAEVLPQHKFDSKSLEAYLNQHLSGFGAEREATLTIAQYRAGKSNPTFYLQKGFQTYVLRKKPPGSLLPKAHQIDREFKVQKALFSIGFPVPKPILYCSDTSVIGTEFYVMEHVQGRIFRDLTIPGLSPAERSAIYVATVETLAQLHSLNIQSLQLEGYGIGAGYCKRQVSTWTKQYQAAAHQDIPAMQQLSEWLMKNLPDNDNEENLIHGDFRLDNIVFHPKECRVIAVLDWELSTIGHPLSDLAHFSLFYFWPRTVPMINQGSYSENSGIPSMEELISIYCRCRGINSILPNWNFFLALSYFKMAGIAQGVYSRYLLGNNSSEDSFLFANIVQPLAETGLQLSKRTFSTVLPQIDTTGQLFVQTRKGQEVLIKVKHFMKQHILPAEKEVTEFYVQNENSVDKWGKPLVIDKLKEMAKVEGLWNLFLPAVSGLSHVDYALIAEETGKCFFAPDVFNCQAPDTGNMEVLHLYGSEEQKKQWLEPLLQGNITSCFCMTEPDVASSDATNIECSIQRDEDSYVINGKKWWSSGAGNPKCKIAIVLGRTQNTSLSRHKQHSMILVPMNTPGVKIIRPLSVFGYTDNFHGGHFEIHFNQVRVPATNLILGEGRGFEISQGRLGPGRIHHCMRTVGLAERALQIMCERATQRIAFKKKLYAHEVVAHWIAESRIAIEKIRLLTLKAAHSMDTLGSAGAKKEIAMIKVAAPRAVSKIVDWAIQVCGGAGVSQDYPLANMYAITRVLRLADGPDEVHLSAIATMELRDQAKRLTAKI

Test [3] addresses Calcium/calmodulin-dependent protein kinase kinase 2 (Homo sapiens, UniProt Q96RR4).
Test [4] deals with T2, Cyclin-G-associated kinase (Homo sapiens, UniProt O14976).
T2 sequence (O14976 whole entry): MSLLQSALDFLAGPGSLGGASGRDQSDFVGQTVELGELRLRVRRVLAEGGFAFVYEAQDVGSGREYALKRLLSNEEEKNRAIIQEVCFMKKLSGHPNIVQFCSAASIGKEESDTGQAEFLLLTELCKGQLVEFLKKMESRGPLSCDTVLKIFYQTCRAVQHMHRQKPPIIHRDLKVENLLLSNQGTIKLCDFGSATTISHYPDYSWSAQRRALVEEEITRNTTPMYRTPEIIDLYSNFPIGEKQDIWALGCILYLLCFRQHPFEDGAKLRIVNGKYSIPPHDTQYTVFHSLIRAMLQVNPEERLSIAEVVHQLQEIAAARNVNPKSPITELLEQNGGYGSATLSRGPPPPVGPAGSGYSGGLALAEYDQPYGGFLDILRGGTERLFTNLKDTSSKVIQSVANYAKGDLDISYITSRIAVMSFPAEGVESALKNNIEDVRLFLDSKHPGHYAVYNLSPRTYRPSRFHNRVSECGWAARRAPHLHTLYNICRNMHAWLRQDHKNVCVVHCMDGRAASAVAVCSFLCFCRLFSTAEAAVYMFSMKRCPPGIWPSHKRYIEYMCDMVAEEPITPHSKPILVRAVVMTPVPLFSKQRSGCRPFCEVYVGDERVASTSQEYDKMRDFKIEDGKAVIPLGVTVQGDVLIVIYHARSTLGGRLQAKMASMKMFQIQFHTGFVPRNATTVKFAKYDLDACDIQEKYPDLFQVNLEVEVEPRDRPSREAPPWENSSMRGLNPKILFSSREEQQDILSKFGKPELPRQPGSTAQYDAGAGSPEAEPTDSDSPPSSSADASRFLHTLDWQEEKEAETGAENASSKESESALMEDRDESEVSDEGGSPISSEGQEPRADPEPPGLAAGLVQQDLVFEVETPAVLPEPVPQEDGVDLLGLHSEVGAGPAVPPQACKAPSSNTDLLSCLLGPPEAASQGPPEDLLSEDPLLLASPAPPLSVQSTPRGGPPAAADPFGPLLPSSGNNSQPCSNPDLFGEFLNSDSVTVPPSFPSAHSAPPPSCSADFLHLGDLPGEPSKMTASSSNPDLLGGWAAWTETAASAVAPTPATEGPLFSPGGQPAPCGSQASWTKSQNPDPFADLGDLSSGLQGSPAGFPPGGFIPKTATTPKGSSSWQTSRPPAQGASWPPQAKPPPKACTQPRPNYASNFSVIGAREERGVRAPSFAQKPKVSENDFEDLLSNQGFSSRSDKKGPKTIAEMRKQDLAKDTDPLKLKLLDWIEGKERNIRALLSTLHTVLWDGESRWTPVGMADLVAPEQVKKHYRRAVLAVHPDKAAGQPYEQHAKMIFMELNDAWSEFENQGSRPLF

Test [5] addresses T3, Serine/threonine-protein kinase Nek2 (Homo sapiens, UniProt P51955).
T3 sequence (P51955 whole entry): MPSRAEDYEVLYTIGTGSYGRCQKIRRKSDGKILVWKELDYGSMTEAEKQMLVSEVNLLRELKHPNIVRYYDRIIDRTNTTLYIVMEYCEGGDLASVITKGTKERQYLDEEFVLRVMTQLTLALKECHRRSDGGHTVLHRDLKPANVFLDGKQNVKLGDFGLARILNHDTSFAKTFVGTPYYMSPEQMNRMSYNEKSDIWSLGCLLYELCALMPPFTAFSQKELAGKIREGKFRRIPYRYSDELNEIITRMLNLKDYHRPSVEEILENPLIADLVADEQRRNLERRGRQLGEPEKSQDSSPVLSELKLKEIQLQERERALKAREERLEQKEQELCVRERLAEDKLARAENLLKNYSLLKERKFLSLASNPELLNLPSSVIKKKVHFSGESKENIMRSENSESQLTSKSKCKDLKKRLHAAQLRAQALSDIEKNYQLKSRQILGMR

Test [6] deals with Protein kinase C delta type (Homo sapiens, UniProt Q05655).
Test [7] has as its target Structural maintenance of chromosomes protein 2 (Homo sapiens, UniProt O95347).
The target in test [8] is Tyrosine-protein kinase Yes (Homo sapiens, UniProt P07947).
Chain of Tyrosine-protein kinase Yes (P07947 whole entry): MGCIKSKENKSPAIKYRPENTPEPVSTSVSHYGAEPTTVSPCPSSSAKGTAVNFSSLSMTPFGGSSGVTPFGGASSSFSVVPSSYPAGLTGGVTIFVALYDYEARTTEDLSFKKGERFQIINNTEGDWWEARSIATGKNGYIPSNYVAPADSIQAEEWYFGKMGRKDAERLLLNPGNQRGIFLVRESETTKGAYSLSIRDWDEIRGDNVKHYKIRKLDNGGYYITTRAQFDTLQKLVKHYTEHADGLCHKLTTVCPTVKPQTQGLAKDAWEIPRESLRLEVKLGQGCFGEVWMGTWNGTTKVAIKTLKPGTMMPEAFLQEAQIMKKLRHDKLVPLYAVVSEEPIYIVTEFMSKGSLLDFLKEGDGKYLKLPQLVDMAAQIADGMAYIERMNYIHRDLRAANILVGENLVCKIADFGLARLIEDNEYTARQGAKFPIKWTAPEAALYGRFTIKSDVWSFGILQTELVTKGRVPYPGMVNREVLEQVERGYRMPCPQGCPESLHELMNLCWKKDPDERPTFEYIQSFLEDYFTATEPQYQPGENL

Chain of Structural maintenance of chromosomes protein 2 (O95347 whole entry): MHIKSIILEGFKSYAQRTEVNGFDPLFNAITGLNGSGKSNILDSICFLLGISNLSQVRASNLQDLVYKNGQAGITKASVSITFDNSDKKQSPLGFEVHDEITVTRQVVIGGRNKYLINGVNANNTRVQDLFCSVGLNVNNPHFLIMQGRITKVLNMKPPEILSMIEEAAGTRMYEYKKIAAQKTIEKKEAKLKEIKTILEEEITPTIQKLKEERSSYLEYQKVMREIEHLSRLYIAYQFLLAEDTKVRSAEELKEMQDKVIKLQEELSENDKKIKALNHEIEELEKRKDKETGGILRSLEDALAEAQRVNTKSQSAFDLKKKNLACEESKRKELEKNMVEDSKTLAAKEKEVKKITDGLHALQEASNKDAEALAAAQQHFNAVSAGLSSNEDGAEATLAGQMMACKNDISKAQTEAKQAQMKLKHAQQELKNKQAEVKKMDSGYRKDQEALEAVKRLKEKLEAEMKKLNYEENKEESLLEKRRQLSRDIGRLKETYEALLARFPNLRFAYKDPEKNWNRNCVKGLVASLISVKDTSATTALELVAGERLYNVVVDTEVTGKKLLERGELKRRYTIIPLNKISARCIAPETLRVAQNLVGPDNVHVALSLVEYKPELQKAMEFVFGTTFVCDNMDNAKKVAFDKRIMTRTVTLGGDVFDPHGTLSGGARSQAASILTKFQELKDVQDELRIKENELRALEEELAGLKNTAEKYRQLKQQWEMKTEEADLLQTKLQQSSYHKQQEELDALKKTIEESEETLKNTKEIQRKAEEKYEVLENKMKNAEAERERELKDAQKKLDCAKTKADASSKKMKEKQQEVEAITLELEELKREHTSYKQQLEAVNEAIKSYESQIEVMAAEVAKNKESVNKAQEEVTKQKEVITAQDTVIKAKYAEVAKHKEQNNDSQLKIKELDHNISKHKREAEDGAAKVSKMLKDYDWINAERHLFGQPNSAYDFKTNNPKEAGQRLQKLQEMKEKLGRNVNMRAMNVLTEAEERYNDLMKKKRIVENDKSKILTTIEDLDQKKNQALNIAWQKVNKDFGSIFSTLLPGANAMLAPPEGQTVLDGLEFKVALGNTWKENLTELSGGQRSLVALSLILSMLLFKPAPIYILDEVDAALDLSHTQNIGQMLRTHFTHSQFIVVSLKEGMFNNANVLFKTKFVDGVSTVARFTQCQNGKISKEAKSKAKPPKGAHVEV
Chain of Protein kinase C delta type (Q05655 whole entry): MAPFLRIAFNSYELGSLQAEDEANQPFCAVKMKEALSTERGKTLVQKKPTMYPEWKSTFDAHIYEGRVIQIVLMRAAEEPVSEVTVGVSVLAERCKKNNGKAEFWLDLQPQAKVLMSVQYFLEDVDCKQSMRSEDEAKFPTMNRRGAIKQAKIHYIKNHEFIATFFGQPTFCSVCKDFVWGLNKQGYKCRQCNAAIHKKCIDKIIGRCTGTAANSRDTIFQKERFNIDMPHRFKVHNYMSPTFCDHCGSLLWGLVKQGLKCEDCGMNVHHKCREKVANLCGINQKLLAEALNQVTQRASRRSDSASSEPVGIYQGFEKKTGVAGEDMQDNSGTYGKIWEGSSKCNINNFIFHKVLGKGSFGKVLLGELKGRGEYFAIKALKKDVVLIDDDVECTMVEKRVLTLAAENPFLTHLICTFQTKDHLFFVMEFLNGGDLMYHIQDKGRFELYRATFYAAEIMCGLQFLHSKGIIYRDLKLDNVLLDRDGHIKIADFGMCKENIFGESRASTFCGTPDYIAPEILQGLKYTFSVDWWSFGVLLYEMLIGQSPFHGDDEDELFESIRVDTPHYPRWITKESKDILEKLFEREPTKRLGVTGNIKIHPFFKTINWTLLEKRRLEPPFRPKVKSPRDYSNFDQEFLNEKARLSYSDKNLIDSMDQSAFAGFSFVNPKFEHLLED
Chain of Calcium/calmodulin-dependent protein kinase kinase 2 (Q96RR4 whole entry): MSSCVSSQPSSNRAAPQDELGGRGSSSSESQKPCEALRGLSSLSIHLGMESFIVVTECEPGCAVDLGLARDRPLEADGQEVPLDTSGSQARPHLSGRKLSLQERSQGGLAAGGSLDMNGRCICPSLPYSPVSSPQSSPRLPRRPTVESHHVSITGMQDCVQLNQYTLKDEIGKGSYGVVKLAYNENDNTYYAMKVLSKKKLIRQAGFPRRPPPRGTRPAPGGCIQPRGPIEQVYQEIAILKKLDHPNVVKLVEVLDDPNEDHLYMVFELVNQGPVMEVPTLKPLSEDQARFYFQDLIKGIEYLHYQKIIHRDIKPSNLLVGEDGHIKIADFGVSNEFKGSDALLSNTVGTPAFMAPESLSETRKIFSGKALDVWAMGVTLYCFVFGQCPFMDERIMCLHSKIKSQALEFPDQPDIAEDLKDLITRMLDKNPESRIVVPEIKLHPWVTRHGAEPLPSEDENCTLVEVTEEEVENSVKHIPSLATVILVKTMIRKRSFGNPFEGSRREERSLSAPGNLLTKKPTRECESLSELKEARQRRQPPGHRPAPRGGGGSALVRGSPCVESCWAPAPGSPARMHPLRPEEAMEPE
Chain of Tyrosine-protein kinase ABL1 (P00519 whole entry): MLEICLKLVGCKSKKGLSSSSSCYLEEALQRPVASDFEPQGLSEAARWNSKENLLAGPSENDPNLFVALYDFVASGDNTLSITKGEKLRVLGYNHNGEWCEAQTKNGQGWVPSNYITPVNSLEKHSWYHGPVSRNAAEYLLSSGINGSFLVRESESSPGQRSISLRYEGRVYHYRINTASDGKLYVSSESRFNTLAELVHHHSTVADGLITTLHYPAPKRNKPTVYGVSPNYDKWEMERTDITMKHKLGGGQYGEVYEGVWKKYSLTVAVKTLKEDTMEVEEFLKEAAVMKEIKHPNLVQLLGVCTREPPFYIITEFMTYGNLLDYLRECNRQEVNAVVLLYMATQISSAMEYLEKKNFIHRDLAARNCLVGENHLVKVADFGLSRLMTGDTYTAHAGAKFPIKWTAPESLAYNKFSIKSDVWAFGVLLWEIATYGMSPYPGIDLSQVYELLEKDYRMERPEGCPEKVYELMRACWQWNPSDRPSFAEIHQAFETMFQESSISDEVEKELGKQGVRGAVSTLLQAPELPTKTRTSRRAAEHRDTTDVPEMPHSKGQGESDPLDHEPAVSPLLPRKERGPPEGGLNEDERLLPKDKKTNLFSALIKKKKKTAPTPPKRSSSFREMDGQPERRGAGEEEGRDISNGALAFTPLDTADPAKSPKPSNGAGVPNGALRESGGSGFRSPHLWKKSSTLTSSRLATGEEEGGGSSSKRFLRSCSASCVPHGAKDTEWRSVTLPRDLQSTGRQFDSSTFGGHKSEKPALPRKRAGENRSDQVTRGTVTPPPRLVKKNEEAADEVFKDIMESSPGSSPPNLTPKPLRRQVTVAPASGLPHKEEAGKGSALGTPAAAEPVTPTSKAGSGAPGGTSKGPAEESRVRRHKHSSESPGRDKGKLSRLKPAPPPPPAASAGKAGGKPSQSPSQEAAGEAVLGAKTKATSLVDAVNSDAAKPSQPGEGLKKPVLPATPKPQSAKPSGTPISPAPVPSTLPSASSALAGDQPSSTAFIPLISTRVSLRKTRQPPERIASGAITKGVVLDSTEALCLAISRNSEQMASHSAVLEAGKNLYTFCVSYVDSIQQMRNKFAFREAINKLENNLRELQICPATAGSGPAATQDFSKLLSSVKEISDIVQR

The term Kd denotes the concentration at which binding is half-saturated. Take `C=CCN(/C=C1/C(=O)O[C@H](COC)[C@@]2(C)C1=C(O)C(=O)C1=C2[C@H](OC(C)=O)C[C@]2(C)C(=O)CC[C@@H]12)CC=C` [SONOLISIB]: the Kd in test [1], in test [2], in test [3], in test [4], in test [5] and in test [6] was > 30 µM (inactive) throughout. The Kd in test [7] and in test [8] was > 30 µM (inactive) throughout.

As for `COc1cccc2cc(-c3nc([C@H]4CC[C@H](C(=O)O)CC4)n4ncnc(N)c34)[nH]c12` [OSI-027], the Kd in test [1], in test [2], in test [3], in test [4], in test [5] and in test [6] was > 30 µM (inactive) each time. The Kd in test [7] and in test [8] was > 30 µM (inactive) throughout.

Turning to `CCN1CCN(Cc2ccc(Nc3ncc(F)c(-c4cc(F)c5nc(C)n(C(C)C)c5c4)n3)nc2)CC1` [ABEMACICLIB], the Kd in test [1] is > 30 µM (inactive); in test [2], > 30 µM (inactive); in test [3], 2.6 µM (active); in test [4], 2.19 µM (active); in test [5] it was > 30 µM (inactive); in test [6] it was 0.795 µM (active). Besides, the Kd in test [7] and in test [8] was > 30 µM (inactive) throughout.

On to `COc1ccc(-c2ccc3ncc4c(c3c2)n(-c2ccc(N3CCNCC3)c(C(F)(F)F)c2)c(=O)n4C)cn1` [BGT-226 FREE BASE], for which the Kd in test [1], in test [2], in test [3], in test [4], in test [5] and in test [6] was > 30 µM (inactive) throughout. In addition, the Kd in test [7] and in test [8] was > 30 µM (inactive) in each case.

As to `CNC(=O)c1ccc(Nc2ncc(C(F)(F)F)c(NCc3nccnc3N(C)S(C)(=O)=O)n2)cc1` [DEFACTINIB], the Kd in test [1], in test [2], in test [3], in test [4], in test [5] and in test [6] was > 30 µM (inactive) each time. Also, the Kd in test [7] and in test [8] was > 30 µM (inactive) throughout.

In the case of `Cc1c(Cn2c(C)nc3c(C(=O)O)cc(N4CCOCC4)cc32)cccc1C(F)(F)F` [GSK-2636771], the Kd in test [1], in test [2], in test [3], in test [4], in test [5] and in test [6] was > 30 µM (inactive) each time. Besides, the Kd in test [7] and in test [8] was > 30 µM (inactive) each time.

Take `C[C@@H]1COC(Nc2ccc3ncnc(Nc4ccc(OCc5nccs5)c(Cl)c4)c3c2)=N1` [VARLITINIB]: the Kd in test [1], in test [2], in test [3], in test [4], in test [5] and in test [6] was > 30 µM (inactive) in each case. Moreover, the results for the Kd in test [7] and in test [8] were > 30 µM (inactive) and 0.321 µM (active), respectively.

Consider `CCc1cc2c(cc1N1CCC(N3CCOCC3)CC1)C(C)(C)c1[nH]c3cc(C#N)ccc3c1C2=O` [ALECTINIB], for which the Kd in test [1] is > 30 µM (inactive); in test [2] it was > 30 µM (inactive); in test [3], 35.6 µM (active); in test [4] it was 0.259 µM (active); in test [5], > 30 µM (inactive); in test [6] it was > 30 µM (inactive). Further, the Kd in test [7] and in test [8] was > 30 µM (inactive) each time.

On to `C#Cc1cccc(Nc2ncnc3cc4c(cc23)OCCOCCOCCO4)c1` [ICOTINIB], for which the Kd in test [1] is > 30 µM (inactive); in test [2], > 30 µM (inactive); in test [3], > 30 µM (inactive); in test [4] it was 0.725 µM (active); in test [5] it was > 30 µM (inactive); in test [6] it was > 30 µM (inactive). Besides, the Kd in test [7] and in test [8] was > 30 µM (inactive) throughout.

Consider `Cn1c(=O)c(F)c(Nc2ccc(I)cc2F)c2c(=O)n(C[C@@H](O)CO)cnc21` [TAK-733], for which the Kd in test [1], in test [2], in test [3], in test [4], in test [5] and in test [6] was > 30 µM (inactive) in each case. For the same compound, the Kd in test [7] and in test [8] was > 30 µM (inactive) each time.

Turning to `COc1cc2ncnc3c2cc1OCCCCCN(C)Cc1ccc(Br)cc1N3` [JNJ-26483327], the Kd in test [1] is > 30 µM (inactive); in test [2], > 30 µM (inactive); in test [3], > 30 µM (inactive); in test [4], 0.12 µM (active); in test [5], > 30 µM (inactive); in test [6] it was > 30 µM (inactive). The Kd in test [7] and in test [8] was > 30 µM (inactive) each time.

`CCOc1ccn(-c2ccc(F)cc2)c(=O)c1C(=O)Nc1ccc(Oc2ccnc(N)c2Cl)c(F)c1` [BMS-777607]: the Kd in test [1] was 0.523 µM (active); in test [2] it was > 30 µM (inactive); in test [3] it was > 30 µM (inactive); in test [4] it was > 30 µM (inactive); in test [5] it was > 30 µM (inactive); in test [6] it was > 30 µM (inactive). In addition, the Kd in test [7] and in test [8] was > 30 µM (inactive) in each case.

These data come from ChEMBL document CHEMBL3991601, “The target landscape of clinical kinase drugs” (Science, 2017).
